Test system: IL-1-dependent PGE^2
Assay: IL-1-dependent PGE2 inhibition test in human rheumatoid synovial cell lines
Type: cell-based
Conditions: recombinant human IL-1 alpha 0.1 ng/ml, 7 hours, 37° C., read-out: IC50 (concentration reducing PGE2 release to 50% of IL-1-stimulated control values)
Experimental: IL-1-dependent PGE ^2 inhibition test:
Human rheumatoid synovial cell lines, prepared by the enzymatic dissociation of fresh rheumatoid tissue, were maintained by culture in Dulbecco's modified Eagle medium containing 25 mM HEPES, 10% foetal calf serum, 100 units of penicillin per ml and 100 μg of streptomycin per ml (culture medium). Standard incubation conditions were 37° C. in a water-saturated atmosphere containing 95% air and 5% CO2.
Semi-confluent cultures at the third to eighteenth passage were detached by trypsin treatment and resuspended in culture medium at […]. The cell suspension was distributed to 200 μl aliquots into the wells of a 96-well microtitration plate and incubated for 18 hours at 37° C. to allow adhesion of the cells.
Test substances were dissolved in equimolar sodium hydroxide solution and double-dilution series were prepared in sterile water. If the test substances is a compound of formula I in which one of R^1 and R^2 is alkoxycarbonyl and the other hydrogen, it is treated with hog liver esterase prior to carrying out the test. The medium was aspirated from the microcultures of the synovial cells. 170 μl of culture medium were added and the cultures were treated with 20 μl of test substances and then 10 μl of recombinant human IL-1 alpha culture medium to give a final concentration of 0.1 ng/ml. All treatments were carried out in quadruplet. After incubation for 7 hours, samples of the culture media were removed and stored at -20° C. prior to assay for PGE2. The PGE2 content was determined using a [^I 125]R1A kit obtained from NEN Products.
PGE2 concentration detected in unstimulated controls were subtracted from values determined in all stimulated cultures and results were transformed to percent of IL-1-stimulated control PGE2 values. IC50 values were determined by interpolation as those concentrations reducing PGE2 release to 50% of IL-1-stimulated control values.

Row | SMILES | IC50 [µM]
1 | CCC1(C(=O)O)C2CCc3c(-c4ccc(Cl)cc4)noc3C21 (stereo not drawn) [Compound F, endo-3-(4-Chlorophenyl)-6-ethyl-5,5a,6,6a-tetrahydro-4H-cyclopropa[g]-1,2-benzisoxazole-6-carboxylic acid] | 0.7
2 | C[C@H]1CC[C@H](C(=O)O)Cc2onc(-c3ccc(Cl)cc3)c21 (relative stereo) [Compound E, trans-3-(4-Chlorophenyl)-5,6,7,8-tetrahydro-4-methyl-4H-cyclohept[d]isoaxazole-7-carboxylic acid] | 0.04
3 | O=C(O)[C@H]1[C@H]2CCc3c(-c4ccc(Cl)cc4)noc3[C@H]21 (relative stereo) [Compound C, endo-3-(4-Chlorophenyl)-5,5a,6,6a-tetrahydro-4H-cyclopropa[g]-1,2-benzisoxazole-6-carboxylic acid] | 0.5

Results, then the molecule that gave them:

Row | IC50 [µM] | SMILES
4 | 8 | CO[C@@H]1CC[C@@H](C(=O)O)Cc2onc(-c3ccc(Cl)cc3)c21 (relative stereo) [Compound D, trans-3-(4-Chlorophenyl)-5,6,7,8-tetrahydro-4-methoxy-4H-cyclohept[d]isoxazole-7-carboxylic acid]
5 | 15 | O=C(O)C1CCCc2c(-c3ccc(Cl)cc3)noc2C1 (stereo not drawn) [Compound B, 3-(4-Chlorophenyl)-5,6,7,8-tetrahydro-4H-cyclohept[d]isoxazole-7-carboxylic acid]
6 | 2 | O=C(O)C1CCc2onc(-c3ccc(Cl)cc3)c2CC1 (single isomer, unassigned; (+)) [Compound A, (+)-3-(4-Chlorophenyl)-5,6,7,8-tetrahydro-4H-cyclohept[d]isoxazole-6-carboxylic acid]

— patent US5114960A, “Substituted isoxazole derivatives” (Hoffmann-La Roche Inc., priority 1989, dated 1992)
